Experimental data taken from patent US20250025490A1, “INDUCTION OF TRAINED IMMUNITY FOR THE TREATMENT OF HYPERPROLIFERATIVE DISORDERS” (priority 2021, published 2025).

Columns and labels:
[1] = tested on: LLC-GFP cells; test: In vivo Mdivi-1 treatment during WGP training, phenotyping and LLC-GFP challenge; design: species or system C57Bl/6 mice
Experimental: In vivo Mdivi-1 treatment. 6 weeks old C57B1/6 female mice were i.p. injected with Mdivi-1 (50 mg/kg) or DMSO along with suitable carriers (5% Tween-80 and 40% PEG300) starting day 0 for 6 days. Mdivi-1/DMSO treated mice were also treated with PBS or WGP at day 0. Mice were euthanized at day 7 to harvest the BM and lungs for phenotyping using flow cytometry. In tumor challenging experiment, Mdivi-1/DMSO-treated PBS vs WGP trained mice were i.v. injected with 0.4×10^6 LLC-GFP cells on day 9. Mice were euthanized on day 27. Lungs were then analyzed for tumor burden using flow cytometry.
CyTOF mass cytometry staining, data acquisition, and analysis. Lung single cell suspensions were prepared as described earlier and ex vivo stimulated with PMA/Ionomycin for 4 h at 37° C., 5% CO2. The cells were then harvested, washed with PBS and transferred to sterile-capped culture tubes. Cells were then stained for viability using 5 μM cisplatin (Fluidigm) in serum-free RPMI 1640 for 5 min at RT and washed with complete RPMI 1640. Cells were stained with the surface markers antibodies for 30 min at RT and washed twice with Maxpar cell staining buffer (Fluidigm) followed by fixation with 1 ml of 1X Maxpar Fix I buffer for 30 min at RT. Upon fixation, cells were washed twice with 2 ml of 1X Maxpar Perm-S buffer for 5 min at 800 g, stained for the cytoplasmic/secreted antibodies and incubated for 30 min at RT. Following incubation, cells were washed twice with 1 ml of 1X Maxpar Perm-S buffer for 5 min at 800 g. The cells were then suspended in 1 ml of 1X Maxpar nuclear antigen staining buffer (Fluidigm) and incubated for 30 min at RT, washed twice with Maxpar nuclear antigen staining permeability buffer (Fluidigm) at 800 g for 5 min each. Cells were stained for nuclear antigens and incubated at RT for 30 min, washed twice with Maxpar nuclear antigen staining permeability buffer and fixed with 1.6% formaldehyde for 10 min at RT. The fixed cells were then centrifuged to remove the formaldehyde at 800 g for 5 min and incubated with 125 nM of intercalator iridium (Fluidigm) overnight at 4° C. After overnight incubation, the cells were washed twice with cell staining buffer, pelleted and kept on ice until acquisition using CyTOF. Prior to acquisition, cells were suspended in a 1:9 solution of Cell acquisition solution: EQ 4 element calibration beads (Fluidigm) and acquired using a Helios CyTOF system. Upon acquisition of the samples, the .FCS files were normalized to .fcs files using the CyTOF software for analysis. The data acquired by CyTOF were then analyzed using FlowJo10 and the FlowSOM softwares.

[2] = tested on: peritoneal macrophages; test: Mitochondrial fission, TMRM confocal microscopy; type: cell-based, mice; details: Mdivi-1 10 μM
Experimental: Confocal microscopy. Poly-L-Lysine-treated glass coverslips were added to 12 well plates to which appropriate numbers of macrophages were added along with 2 ml of sterile complete DMEM. Cells were trained with WGP alone or in combination with Mdivi-1 (10 μM) for 7 days as previously described. After 7 days of incubation, the media was removed, and the cells were washed with sterile PBS followed by addition of TMRM dye (Tetramethylrhodamine, methyl ester, Sigma) for 20 min. After incubation, the cells were washed with PBS and fixed with 1 ml of 4% formalin at room temperature for 20-30 min. The cells were washed thrice with PBS and the glass slides were removed carefully with the help of forceps and mounted on the slides using mounting reagents and left overnight to dry at room temperature or stored at 4° C. protecting from the light. The slides were then read using a Nikon Confocal microscope. Mitochondrial fragment lengths were measured by counting at least 100 mitochondria per sample using an Image-J software.

[3] = tested on: peritoneal macrophages; test: Mitochondrial ROS quantitation (MitoSox Red); type: cell-based, mice; details: Mdivi-1 50 μM and 75 μM
Experimental: Mitochondrial ROS quantitation. Peritoneal macrophages were treated with WGP or S1P in the presence or absence of Mdivi-1 and incubated at 37° C. with 5% CO2 for 24 h. The cells were then harvested, washed with PBS and pelleted by centrifugation at 1600 rpm for 5 min at room temperature. The pellets were then stained with MitoSOX Red dye (5 μM) (Invitrogen) at 37° C. for 15 min. The cells were washed with pre-warmed HBSS followed by another wash with PBS at room temperature. The cells were then stained with viability dye and anti-F4/80 and then acquired by flow cytometry. Flow cytometry for p-Drp-1. Peritoneal macrophages were treated with WGP (25 μg/ml) or S1P (1 μM) and incubated at 37° C. with 5% CO2 for 3-4 h. Following the completion of incubation, the cells were quickly washed with cold PBS to stop the activation. The cells were harvested and washed with PBS. The cells were then fixed with 4% formaldehyde for 15 min at room temperature, washed with PBS and permeabilized using ice-cold 100% methanol on ice for a minimum of 10 min. The cells were then stained with primary antibody (p-Drp1) (Cell Signaling) for 1 hour at room temperature followed by secondary antibody (Anti-rabbit IgG) (Biolegend) for 30 min at room temperature as instructed in the Cell Signaling phospho-stain protocol and analyzed using flow cytometry.

[4] = tested on: LLC cells; test: LDH release cytotoxicity assay against LLC cells; details: Mdivi-1 10 μM, 10:1
Experimental: Cytotoxicity assay. Lung IMs from the PBS vs WGP-trained mice were sorted and co-cultured with LLC cells at different ratios in a 96-well plate. The plates were then incubated at 37° C. with 5% CO2 for 12-16 h. Upon completion of incubation, the supernatants were harvested and assayed for the release of lactate dehydrogenase as per the instructions described in the CyQUANT™ LDH Cytotoxicity Assay Kit (Invitrogen). For the cytotoxicity assay in the presence of Mdivi-1 (10 μM) (Sigma Aldrich), peritoneal macrophages were in vitro trained with PBS or WGP in the presence of Mdivi-1 or DMSO for 6 days. The macrophages were then harvested, counted, and co-cultured with LLC cells at a ratio of 10:1 followed by the lactate dehydrogenase assay for cytotoxicity. In another set of experiments, IMs from the lungs of PBS vs WGP-trained mice were harvested, sorted, and co-cultured with LLC cells (10:1) in the presence of N-acetyl-L-Cysteine (NAC, 1 mM) (Sigma Aldrich) or DMSO and assayed for cytotoxicity.

Compound: COc1cc(-n2c(=S)[nH]c3ccccc3c2=O)c(Cl)cc1Cl [Mdivi-1]
- effect on WGP-mediated accumulation of myeloid cells in the lungs ([1]; Mdivi-1 50 mg/kg i.p. daily): did not affect WGP-mediated accumulation of myeloid cells in the lungs
- effect on WGP-mediated myelopoiesis in the BM ([1]; Mdivi-1 50 mg/kg i.p. daily, day 7): does not inhibit WGP-mediated myelopoiesis in the BM
- lung IM trained phenotype (TNF-α) in WGP trained mice ([1]; Mdivi-1 treated): completely inhibited
- tumor burdens in the lungs ([1]; WGP trained + Mdivi-1 vs untrained control): no difference in the tumor burdens between WGP trained mice treated with Mdivi-1 and untrained control mice
- F4/80+CD11b+ lung MAMs and PD-L1+/CD206+ lung macrophages, CyTOF ([1]; mouse, in vivo): this effect was abolished when mice were treated with Mdivi-1
- effect on WGP-induced mitochondrial fragmentation [2]: abrogated WGP-induced mitochondrial fragmentation
- effect on WGP-mediated mtROS production [3]: abrogated WGP-mediated mtROS production
- effect on cytotoxicity of WGP-trained peritoneal macrophages [4]: abrogated WGP-mediated mtROS production (FIG. 14D) and cytotoxicity against tumor cells
